US20160158200A1, “Combinations of Hepatitis C Virus Inhibitors” (priority 2013, published 2016)

System: HCV genotype-1a variant with glutamine 30 changed to glutamate in the NS5A protein
Type: cell-based
Details: test compound titrated with BMS-790052 fixed at 200 nM; genotype 1a Q30E replicon
In short: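 Synergy was assessed by combining several fixed amounts of an NS5A-targeting compound with a titration of the second compound of interest.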

| SMILES | Fold-Synergistic 1a (Q30E) |
| --- | --- |
| CC(C)(C(=O)N[C@H](c1nc(-c2ccc(-c3ccc(-c4c[nH]c([C@@H](NC(=O)C(C)(C)C(O)C5CC(F)(F)C5)C(C)(C)C)n4)cc3)cc2)c[nH]1)C(C)(C)C)C(O)C1CC(F)(F)C1 (single isomer, unassigned) [Compound N-144A] | >100 fold |
| CC(C)(C(=O)N[C@H](c1nc(-c2ccc(-c3ccc(-c4c[nH]c([C@@H](NC(=O)C(C)(C)C(O)C5CC(F)(F)C5)C(C)(C)C)n4)cc3)cc2)c[nH]1)C(C)(C)C)C(O)C1CC(F)(F)C1 (single isomer, unassigned) [Compound N-144B] | >100 fold |
| CC(C)(C(=O)N[C@H](c1nc(-c2ccc(-c3ccc(-c4c[nH]c([C@@H](NC(=O)C(C)(C)C(O)C5CC(F)(F)C5)C(C)(C)C)n4)cc3)cc2)c[nH]1)C(C)(C)C)C(O)C1CC(F)(F)C1 (single isomer, unassigned) [Compound N-144C] | >100 fold |
| CC(C)[C@H](NC(=O)C(C)(C)C(O)C1CC(F)(F)C1)c1nc(-c2ccc(-c3ccc(-c4c[nH]c([C@@H](NC(=O)C(C)(C)C(O)C5CC(F)(F)C5)C(C)C)n4)cc3)cc2)c[nH]1 (single isomer, unassigned) [Compound N-145A] | >100 fold |
| CC(C)[C@H](NC(=O)C(C)(C)C(O)C1CC(F)(F)C1)c1nc(-c2ccc(-c3ccc(-c4c[nH]c([C@@H](NC(=O)C(C)(C)C(O)C5CC(F)(F)C5)C(C)C)n4)cc3)cc2)c[nH]1 (single isomer, unassigned) [Compound N-145B] | >100 fold |
| CC(C)[C@H](NC(=O)C(C)(C)C(O)C1CC(F)(F)C1)c1nc(-c2ccc(-c3ccc(-c4c[nH]c([C@@H](NC(=O)C(C)(C)C(O)C5CC(F)(F)C5)C(C)C)n4)cc3)cc2)c[nH]1 (single isomer, unassigned) [Compound N-145C] | >100 fold |
| CC1(C(O)C(C)(C)C(=O)N[C@H](c2nc(-c3ccc(-c4ccc(-c5c[nH]c([C@@H](NC(=O)C(C)(C)C(O)C6(C)CC6)C(C)(C)C)n5)cc4)cc3)c[nH]2)C(C)(C)C)CC1 (single isomer, unassigned) [Compound N-151A] | >100 fold |
| CC1(C(O)C(C)(C)C(=O)N[C@H](c2nc(-c3ccc(-c4ccc(-c5c[nH]c([C@@H](NC(=O)C(C)(C)C(O)C6(C)CC6)C(C)(C)C)n5)cc4)cc3)c[nH]2)C(C)(C)C)CC1 (single isomer, unassigned) [Compound N-151B] | >100 fold |
| CC1(C(O)C(C)(C)C(=O)N[C@H](c2nc(-c3ccc(-c4ccc(-c5c[nH]c([C@@H](NC(=O)C(C)(C)C(O)C6(C)CC6)C(C)(C)C)n5)cc4)cc3)c[nH]2)C(C)(C)C)CC1 (single isomer, unassigned) [Compound N-151C] | >100 fold |
| CC(O)C1(C(=O)N[C@H](c2nc(-c3ccc(-c4ccc(-c5c[nH]c([C@@H](NC(=O)C6(C(C)O)CCCCC6)C(C)(C)C)n5)cc4)cc3)c[nH]2)C(C)(C)C)CCCCC1 (single isomer, unassigned) [Compound N-152B] | >100 fold |
| CC(O)C1(C(=O)N[C@H](c2nc(-c3ccc(-c4ccc(-c5c[nH]c([C@@H](NC(=O)C6(C(C)O)CCCCC6)C(C)(C)C)n5)cc4)cc3)c[nH]2)C(C)(C)C)CCCCC1 (single isomer, unassigned) [Compound N-152C] | >100 fold |
| COC(CO)(CC(C)C)C(=O)N[C@H](c1nc(-c2ccc(-c3ccc(-c4c[nH]c([C@@H](NC(=O)C(CO)(CC(C)C)OC)C(C)(C)C)n4)cc3)cc2)c[nH]1)C(C)(C)C (single isomer, unassigned) [Compound N-160A] | >100 fold |
| COC(CO)(CC(C)C)C(=O)N[C@H](c1nc(-c2ccc(-c3ccc(-c4c[nH]c([C@@H](NC(=O)C(CO)(CC(C)C)OC)C(C)(C)C)n4)cc3)cc2)c[nH]1)C(C)(C)C (single isomer, unassigned) [Compound N-160B] | >100 fold |
| COC(CO)(CC(C)C)C(=O)N[C@H](c1nc(-c2ccc(-c3ccc(-c4c[nH]c([C@@H](NC(=O)C(CO)(CC(C)C)OC)C(C)(C)C)n4)cc3)cc2)c[nH]1)C(C)(C)C (single isomer, unassigned) [Compound N-160C] | >100 fold |
| CC(C)(C)OC(=O)NC1(C(=O)N[C@H](c2nc(-c3ccc(-c4ccc(-c5c[nH]c([C@@H](NC(=O)C6(NC(=O)OC(C)(C)C)CC6(F)F)C(C)(C)C)n5)cc4)cc3)c[nH]2)C(C)(C)C)CC1(F)F (single isomer, unassigned) [Compound W-13] | >100 fold |
| CC(C)(C)OC(=O)NC1(C(=O)N[C@H](c2nc(-c3ccc(-c4ccc(-c5c[nH]c([C@@H](NC(=O)C6(NC(=O)OC(C)(C)C)CC6(F)F)C(C)(C)C)n5)cc4)cc3)c[nH]2)C(C)(C)C)CC1(F)F (single isomer, unassigned) [Compound W-14] | >100 fold |

| SMILES | Fold-Synergistic 1a (Q30E) |
| --- | --- |
| CC(C)(C)OC(=O)NC1(C(=O)N[C@H](c2nc(-c3ccc(-c4ccc(-c5c[nH]c([C@@H](NC(=O)C6(NC(=O)OC(C)(C)C)CC6(F)F)C(C)(C)C)n5)cc4)cc3)c[nH]2)C(C)(C)C)CC1(F)F (single isomer, unassigned) [Compound W-15] | >100 fold |
| CC(C)(C)OC(=O)NC1CCCCC1C(=O)N[C@H](c1nc(-c2ccc(-c3ccc(-c4c[nH]c([C@@H](NC(=O)C5CCCCC5NC(=O)OC(C)(C)C)C(C)(C)C)n4)cc3)cc2)c[nH]1)C(C)(C)C (single isomer, unassigned) [Compound W-23A] | >100 fold |
| CC(C)(C)OC(=O)NC1CCCCC1C(=O)N[C@H](c1nc(-c2ccc(-c3ccc(-c4c[nH]c([C@@H](NC(=O)C5CCCCC5NC(=O)OC(C)(C)C)C(C)(C)C)n4)cc3)cc2)c[nH]1)C(C)(C)C (single isomer, unassigned) [Compound W-23B] | >100 fold |
| CC(C)(C)OC(=O)NC1CCCCC1C(=O)N[C@H](c1nc(-c2ccc(-c3ccc(-c4c[nH]c([C@@H](NC(=O)C5CCCCC5NC(=O)OC(C)(C)C)C(C)(C)C)n4)cc3)cc2)c[nH]1)C(C)(C)C (single isomer, unassigned) [Compound W-23C] | >100 fold |
| CC1CN(C(=O)C(=O)N[C@H](c2nc(-c3ccc(-c4ccc(-c5c[nH]c([C@@H](NC(=O)C(=O)N6CC(C)OC(C)C6)C(C)(C)C)n5)cc4)cc3)c[nH]2)C(C)(C)C)CC(C)O1 (single isomer, unassigned) [Compound W-40A] | >100 fold |
| CC1CN(C(=O)C(=O)N[C@H](c2nc(-c3ccc(-c4ccc(-c5c[nH]c([C@@H](NC(=O)C(=O)N6CC(C)OC(C)C6)C(C)(C)C)n5)cc4)cc3)c[nH]2)C(C)(C)C)CC(C)O1 (single isomer, unassigned) [Compound W-40B] | >100 fold |
| CC1CN(C(=O)C(=O)N[C@H](c2nc(-c3ccc(-c4ccc(-c5c[nH]c([C@@H](NC(=O)C(=O)N6CC(C)OC(C)C6)C(C)(C)C)n5)cc4)cc3)c[nH]2)C(C)(C)C)CC(C)O1 (single isomer, unassigned) [Compound W-40C] | >100 fold |
| CC(C)(C)OC(=O)N1CC(F)(F)CC1(C)C(=O)N[C@H](c1nc(-c2ccc(-c3ccc(-c4c[nH]c([C@@H](NC(=O)C5(C)CC(F)(F)CN5C(=O)OC(C)(C)C)C(C)(C)C)n4)cc3)cc2)c[nH]1)C(C)(C)C (single isomer, unassigned) [Compound W-76] | >100 fold |
| CC(C)(C)OC(=O)N1CC(F)(F)CC1(C)C(=O)N[C@H](c1nc(-c2ccc(-c3ccc(-c4c[nH]c([C@@H](NC(=O)C5(C)CC(F)(F)CN5C(=O)OC(C)(C)C)C(C)(C)C)n4)cc3)cc2)c[nH]1)C(C)(C)C (single isomer, unassigned) [Compound W-77] | >100 fold |
| CC(C)(C)OC(=O)N1CC(F)(F)CC1(C)C(=O)N[C@H](c1nc(-c2ccc(-c3ccc(-c4c[nH]c([C@@H](NC(=O)C5(C)CC(F)(F)CN5C(=O)OC(C)(C)C)C(C)(C)C)n4)cc3)cc2)c[nH]1)C(C)(C)C (single isomer, unassigned) [Compound W-78] | >100 fold |
| CC1(C)CCCC(C)(C(=O)N[C@H](c2nc(-c3ccc(-c4ccc(-c5c[nH]c([C@@H](NC(=O)C6(C)CCCC(C)(C)O6)C(C)(C)C)n5)cc4)cc3)c[nH]2)C(C)(C)C)O1 (single isomer, unassigned) [Compound W-167] | >100 fold |
| CC1(C)CCCC(C)(C(=O)N[C@H](c2nc(-c3ccc(-c4ccc(-c5c[nH]c([C@@H](NC(=O)C6(C)CCCC(C)(C)O6)C(C)(C)C)n5)cc4)cc3)c[nH]2)C(C)(C)C)O1 (single isomer, unassigned) [Compound W-168] | >10 fold |
| CC1(O)CC(C(=O)N[C@H](c2nc(-c3ccc(-c4ccc(-c5c[nH]c([C@@H](NC(=O)C6CC(C)(O)C6)C(C)(C)C)n5)cc4)cc3)c[nH]2)C(C)(C)C)C1 (single isomer, unassigned) [Compound W-169] | >100 fold |
| CC1(O)CC(C(=O)N[C@H](c2nc(-c3ccc(-c4ccc(-c5c[nH]c([C@@H](NC(=O)C6CC(C)(O)C6)C(C)(C)C)n5)cc4)cc3)c[nH]2)C(C)(C)C)C1 (single isomer, unassigned) [Compound W-170] | >100 fold |
| COC(C)(COCc1ccccc1)C(=O)N[C@H](c1nc(-c2ccc(-c3ccc(-c4c[nH]c([C@@H](NC(=O)C(C)(COCc5ccccc5)OC)C(C)(C)C)n4)cc3)cc2)c[nH]1)C(C)(C)C.O=C(O)C(F)(F)F.O=C(O)C(F)(F)F (single isomer, unassigned) [Compound W-230] | >100 fold |
| COC(C)(COCc1ccccc1)C(=O)N[C@H](c1nc(-c2ccc(-c3ccc(-c4c[nH]c([C@@H](NC(=O)C(C)(COCc5ccccc5)OC)C(C)(C)C)n4)cc3)cc2)c[nH]1)C(C)(C)C.O=C(O)C(F)(F)F.O=C(O)C(F)(F)F (single isomer, unassigned) [Compound W-231] | >100 fold |
